US20250332109A1 (Veradermics, Incorporated, priority 2024, published 2025)
Like-named read-outs stand apart in the source and are kept apart here.

Experiments:
[1] = cited from earlier work
[2] = test system: hypertensive patients; conditions: intravenous infusion; cited from earlier work
[3] = test system: rabbits; conditions: oral, 5 times the maximum recommended oral antihypertensive human dose; cited from earlier work
[4] = test system: patients; conditions: chronic therapy; initially, then recovers; cited from earlier work
[5] = test system: subjects; conditions: topical foam 5% versus vehicle topical foam; 404 subjects enrolled; cited from earlier work
[6] = test system: male adults with AGA; conditions: 5 mg oral at bedtime; 24 week follow up; cited from earlier work
[7] = test system: person with androgenetic alopecia; assay: Case study: person with androgenetic alopecia and hypertension treated with oral minoxidil; conditions: 0.625 mg four times a day
[8] = test system: mice; conditions: dietary, up to 2 years, 10, 25, and 63 mg/kg/day; cited from earlier work
[9] = primarily by conjugation with glucuronic acid; cited from earlier work
[10] = test system: person with androgenetic alopecia; conditions: 1.25 mg QID

In the case of Nc1cc(N2CCCCC2)nc(N)[n+]1[O-] [minoxidil], the “dose dependence of PK” value ([1]; 2.5 mg, 5 mg, 10 mg oral, PK and urinary excretion data) is listed as “dose-independent PK”, the “duration plasma concentrations above 20 ng/mL” value ([1]; 5 mg dose level) is listed as “around 1 h” and the “duration plasma concentrations above 20 ng/mL” value ([1]; 10 mg dose level) is listed as “around 2 h”. The observed half-life ([1]; immediate release formulation, healthy subjects) was “around 1 h”, the “effect on blood pressure” value ([1]; normotensive subjects, 2.5 mg, 5 mg, or 10 mg oral) was “little effect on blood pressure” and the “steady state plasma concentration associated with significant (>5 beats per minute) changes in heart rate” value [2] was “above 20 ng/mL”. The fetal resorption [3] was “increased fetal resorption”, the “temporary decrease in hematocrit, hemoglobin, and erythrocyte count (hemodilution)” value [4] was “approximately 7%” and the “SAEs reported in treated subjects” value [5] was “Six”. For the same compound, the subjects reporting edema [6] was 2.9%, the subjects reporting vertigo [6] was 2.9% and the “reductions in blood pressure” value [7] was “did not experience significant reductions in blood pressure”. For the same compound, the “unwanted hair growth or other adverse events” value [7] was “No unwanted hair growth or other adverse events”, the “incidence of malignant lymphomas in females” value [8] was “increased incidence of malignant lymphomas” and the “fraction of oral dose metabolized” value [9] was “About 90%”. For the same compound, the “unwanted hair growth or other adverse events, including cardiac effects” value [10] was “No unwanted hair growth or other adverse events”.
